Source: patent US10308689B2, “Dengue virus (DV) polypeptide sequences, T cell epitopes and methods and uses thereof” (LA JOLLA INSTITUTE FOR ALLERGY AND IMMUNOLOGY, priority 2010, dated 2019)
Ends that are not written are not given here.

Tested on: PBMC of healthy adult blood donors from Colombo, Sri Lanka
Assay: Ex vivo IFNγ ELISPOT, HLA-matched PBMC of Sri Lankan blood donors
Type: cell-based, human
Set-up: Total Response per epitope: unit not given here
Settings: for # donors responded: number of donors responding to the epitope; for T cell response [SFC]: ex vivo IFNγ SFC/10^6 PBMC; for # of responders: responding donors, HLA allele(s)
[1] = restricting HLA allele and serotype as given
[2] = total over responding donors, restricting HLA allele and serotype as given
[3] = IFNγ ELISPOT response summed over responding donors, per epitope
[4] = HLA-matched PBMC, proteome-wide screen
[5] = HLA allele, supertype and serotype
[6] = summed IFNγ ELISPOT response per epitope, HLA allele and serotype as given

CC(C)C[C@H](NC(=O)[C@H](CCCNC(=N)N)NC(=O)[C@@H]1CCCN1C(=O)[C@@H](N)CCCCN)C(=O)N[C@@H](CS)C(=O)N[C@H](C(=O)N[C@@H](CCCNC(=N)N)C(=O)N[C@@H](CCC(=O)O)C(=O)N[C@@H](CCC(=O)O)C(=O)N[C@@H](Cc1ccccc1)C(=O)O)[C@@H](C)O
# donors responded [1]: 1 | T cell response [SFC] (per epitope): 350 SFC | # of responders: 1 | Total Response per epitope [2]: 350.0

CC(C)C[C@H](NC(=O)[C@H](CO)NC(=O)[C@H](CC(N)=O)NC(=O)[C@H](CCC(=O)O)NC(=O)[C@H](CCCNC(=N)N)NC(=O)[C@H](CO)NC(=O)[C@@H](N)Cc1ccccc1)C(=O)N[C@@H](CO)C(=O)NCC(=O)N[C@H](C(=O)O)C(C)C
# donors responded [1]: 1 | Total Response per epitope [2]: 101.7

KVLNPYMPSV
Total Response per epitope [3]: 63.3 | # donors responded [4]: 1

CC[C@H](C)[C@H](N)C(=O)N1CCC[C@H]1C(=O)N[C@@H](Cc1ccccc1)C(=O)N[C@@H](CCC(=O)O)C(=O)N[C@H](C(=O)N[C@@H](CCSC)C(=O)N[C@@H](CC(=O)O)C(=O)N[C@@H](CC(C)C)C(=O)N[C@@H](CCC(=O)O)C(=O)N[C@@H](CCCCN)C(=O)O)[C@@H](C)CC
# donors responded [1]: 5 | Total Response per epitope [2]: 1500.0

CC(C)[C@H](NC(=O)[C@H](CCCNC(=N)N)NC(=O)[C@H](CCC(N)=O)NC(=O)[C@H](CCC(N)=O)NC(=O)CNC(=O)[C@H](Cc1ccccc1)NC(=O)[C@@H]1CCCN1C(=O)[C@@H](N)[C@@H](C)O)C(=O)N[C@@H](Cc1ccccc1)C(=O)O
# donors responded [5]: 3 | Total Response per epitope [6]: 438.3

CSCC[C@H](NC(=O)[C@H](CCC(=O)O)NC(=O)[C@H](CC(C)C)NC(=O)[C@H](CCCCN)NC(=O)CNC(=O)[C@H](CC(C)C)NC(=O)[C@H](Cc1c[nH]cn1)NC(=O)[C@H](Cc1c[nH]c2ccccc12)NC(=O)[C@@H]1CCCN1C(=O)CN)C(=O)O
# donors responded [1]: 3 | Total Response per epitope [2]: 90.0

YAQMWQLMYF
Total Response per epitope [3]: 135.0 | # donors responded [4]: 1

CC(C)C[C@H](NC(=O)[C@H](CCCNC(=N)N)NC(=O)[C@@H]1CCCN1C(=O)[C@@H](N)CC(N)=O)C(=O)N[C@@H](CS)C(=O)N[C@H](C(=O)N[C@@H](CCCNC(=N)N)C(=O)N[C@@H](CCC(=O)O)C(=O)N[C@@H](CCC(=O)O)C(=O)N[C@@H](Cc1ccccc1)C(=O)O)[C@@H](C)O
# donors responded [1]: 1 | T cell response [SFC] (per epitope): 365 SFC | # of responders: 1 | Total Response per epitope [2]: 365.0

YTPEGIIPTL
# donors responded [5]: 1 | T cell response [SFC] (per epitope): 872 SFC | # of responders: 1 | Total Response per epitope [6]: 871.7

CC(C)C[C@H](NC(=O)[C@H](CCC(=O)O)NC(=O)[C@H](CC(C)C)NC(=O)[C@H](CCCCN)NC(=O)CNC(=O)[C@H](CC(C)C)NC(=O)[C@H](Cc1c[nH]cn1)NC(=O)[C@H](Cc1c[nH]c2ccccc12)NC(=O)[C@@H]1CCCN1C(=O)CN)C(=O)O
# donors responded [1]: 2 | Total Response per epitope [2]: 495.0

C[C@H](NC(=O)[C@H](Cc1c[nH]c2ccccc12)NC(=O)[C@@H](NC(=O)[C@H](CCCNC(=N)N)NC(=O)[C@H](Cc1ccc(O)cc1)NC(=O)[C@@H]1CCCN1C(=O)[C@H](CC(N)=O)NC(=O)[C@H](CCC(=O)O)NC(=O)[C@@H](N)CCC(N)=O)[C@@H](C)O)C(=O)N[C@@H](Cc1ccc(O)cc1)C(=O)O
Total Response per epitope [3]: 265.0 | # donors responded [4]: 1

CC[C@H](C)[C@H](NC(=O)[C@@H](NC(=O)[C@H](CC(=O)O)NC(=O)[C@H](CCSC)NC(=O)[C@@H](NC(=O)[C@H](C)NC(=O)CNC(=O)[C@H](CCCCN)NC(=O)[C@@H]1CCCN1C(=O)[C@@H](N)[C@@H](C)O)C(C)C)[C@@H](C)CC)C(=O)O
# donors responded [5]: 1 | Total Response per epitope [6]: 105.0

CC[C@H](C)[C@H](NC(=O)[C@H](CC(N)=O)NC(=O)[C@H](C)NC(=O)[C@@H](N)CCSC)C(=O)N[C@@H](Cc1ccccc1)C(=O)N[C@@H](CCCNC(=N)N)C(=O)NCC(=O)N[C@@H](CO)C(=O)N[C@@H](Cc1ccc(O)cc1)C(=O)O
Total Response per epitope [3]: 821.7 | # donors responded [4]: 5

CSCC[C@H](NC(=O)[C@H](Cc1ccccc1)NC(=O)[C@@H](NC(=O)[C@@H]1CCCN1C(=O)[C@@H](N)CC(C)C)[C@@H](C)O)C(=O)N[C@H](C(=O)N[C@@H](CCC(N)=O)C(=O)N[C@@H](CCCCN)C(=O)N[C@@H](C)C(=O)N[C@@H](CCCNC(=N)N)C(=O)O)[C@@H](C)O
Total Response per epitope [3]: 1263.3 | # donors responded [4]: 8

CC[C@H](C)[C@H](NC(=O)[C@@H]1CCCN1C(=O)[C@@H](N)CC(=O)O)C(=O)N1CCC[C@H]1C(=O)N[C@@H](Cc1ccc(O)cc1)C(=O)N[C@@H](CC(=O)O)C(=O)N1CCC[C@H]1C(=O)N[C@@H](CCCCN)C(=O)N[C@@H](Cc1ccccc1)C(=O)O
# donors responded [1]: 1 | Total Response per epitope [2]: 38.3

CC[C@H](C)[C@H](N)C(=O)N[C@@H](C)C(=O)N[C@H](C(=O)N[C@@H](CO)C(=O)N[C@@H](CCSC)C(=O)N[C@@H](C)C(=O)N[C@@H](CC(N)=O)C(=O)N[C@H](C(=O)N[C@@H](Cc1ccccc1)C(=O)O)[C@@H](C)CC)C(C)C
# donors responded [1]: 6 | Total Response per epitope [2]: 1966.7

TTKRDLGMSK
# donors responded [5]: 1 | Total Response per epitope [6]: 35.0

NPWMEDKTPV
Total Response per epitope [3]: 191.7 | # donors responded [4]: 2

CC[C@H](C)[C@H](NC(=O)[C@@H](NC(=O)[C@H](CC(=O)O)NC(=O)[C@H](CCSC)NC(=O)[C@@H](NC(=O)[C@@H](NC(=O)CNC(=O)[C@H](CCCNC(=N)N)NC(=O)[C@@H]1CCCN1C(=O)[C@@H](N)[C@@H](C)O)[C@@H](C)O)C(C)C)[C@@H](C)CC)C(=O)O
# donors responded [5]: 1 | Total Response per epitope [6]: 331.7

CC[C@H](C)[C@H](N)C(=O)N[C@@H](C)C(=O)N[C@H](C(=O)N[C@@H](CO)C(=O)N[C@H](C(=O)N[C@@H](C)C(=O)N[C@@H](CC(N)=O)C(=O)N[C@H](C(=O)N[C@@H](Cc1ccccc1)C(=O)O)[C@@H](C)CC)[C@@H](C)O)C(C)C
# donors responded [1]: 2 | Total Response per epitope [2]: 415.0

CC(C)C[C@H](NC(=O)[C@H](CCC(N)=O)NC(=O)[C@H](CC(N)=O)NC(=O)[C@H](CC(=O)O)NC(=O)[C@H](CCC(N)=O)NC(=O)[C@@H]1CCCN1C(=O)[C@@H](N)[C@@H](C)O)C(=O)N[C@H](C(=O)N[C@@H](Cc1ccc(O)cc1)C(=O)O)[C@@H](C)O
# donors responded [5]: 1 | Total Response per epitope [6]: 75.0

SPKRLATAIA
Total Response per epitope [3]: 68.3 | # donors responded [4]: 1

VPLLAMGCY
# donors responded [5]: 1 | T cell response [SFC] (per epitope): 1083 SFC | # of responders: 1 | Total Response per epitope [6]: 1083.3

CC[C@H](C)[C@H](NC(=O)[C@@H]1CCCN1C(=O)[C@H](CCC(=O)O)NC(=O)[C@H](CCC(=O)O)NC(=O)[C@H](Cc1c[nH]cn1)NC(=O)CNC(=O)[C@@H]1CCCN1C(=O)CN)C(=O)N1CCC[C@H]1C(=O)N[C@@H](CCSC)C(=O)O
# donors responded [1]: 3 | Total Response per epitope [2]: 235.0

KEGVFHTMW
# donors responded [1]: 1 | Total Response per epitope [2]: 178.3

GEFRLRGEQR
# donors responded [1]: 3 | T cell response [SFC] (per epitope): 1373 SFC | # of responders: 3 | Total Response per epitope [2]: 1373.3

CSCC[C@H](NC(=O)[C@H](CC(C)C)NC(=O)[C@H](CCCCN)NC(=O)[C@H](CCCCN)NC(=O)[C@@H](NC(=O)CNC(=O)[C@H](CCC(=O)O)NC(=O)[C@H](CCCCN)NC(=O)[C@@H]1CCCN1C(=O)[C@@H](N)CCC(=O)O)[C@@H](C)O)C(=O)O
# donors responded [1]: 3 | Total Response per epitope [2]: 928.3

TLMAAILAY
# donors responded [1]: 1 | Total Response per epitope [2]: 43.3

CC[C@H](C)[C@H](N)C(=O)N[C@@H](CCC(N)=O)C(=O)N1CCC[C@H]1C(=O)N[C@@H](Cc1ccccc1)C(=O)N[C@@H](CC(C)C)C(=O)N[C@@H](C)C(=O)N[C@@H](CC(C)C)C(=O)NCC(=O)N[C@@H](Cc1ccccc1)C(=O)O
# donors responded [1]: 1 | Total Response per epitope [2]: 85.0

CSCC[C@H](NC(=O)[C@H](CCSC)NC(=O)[C@H](CC(C)C)NC(=O)[C@@H](N)CS)C(=O)N[C@@H](CCSC)C(=O)N[C@@H](CC(C)C)C(=O)N1CCC[C@H]1C(=O)N[C@@H](C)C(=O)N[C@H](C(=O)N[C@@H](CC(C)C)C(=O)O)[C@@H](C)O
# donors responded [1]: 1 | Total Response per epitope [2]: 78.3

IANQAAILM
# donors responded [1]: 1 | Total Response per epitope [2]: 58.3

RPGYHTQTA
Total Response per epitope [3]: 501.7 | # donors responded [4]: 2

C[C@H](NC(=O)[C@H](CCCNC(=N)N)NC(=O)CNC(=O)CNC(=O)[C@H](C)NC(=O)[C@H](CCC(=O)O)NC(=O)[C@H](C)NC(=O)[C@@H](N)[C@@H](C)O)C(=O)N[C@@H](Cc1ccc(O)cc1)C(=O)O
Total Response per epitope [3]: 371.7 | # donors responded [4]: 4

CC[C@H](C)[C@H](NC(=O)[C@H](CCC(=O)O)NC(=O)[C@H](Cc1ccccc1)NC(=O)[C@@H]1CCCN1C(=O)[C@@H](NC(=O)[C@H](CCCCN)NC(=O)[C@H](CS)NC(=O)[C@@H]1CCCN1C(=O)[C@@H](N)CO)[C@@H](C)CC)C(=O)N[C@@H](CCSC)C(=O)O
Total Response per epitope [3]: 1156.0 | # donors responded [4]: 5

KQISNELNY
# donors responded [1]: 1 | Total Response per epitope [2]: 26.7

ATGPVLTLW
# donors responded [1]: 2 | T cell response [SFC] (per epitope): 390 SFC | # of responders: 2 | Total Response per epitope [2]: 390.0

CSCC[C@H](NC(=O)[C@H](CO)NC(=O)[C@@H]1CCCN1C(=O)[C@@H](N)CCSC)C(=O)N[C@@H](CCCCN)C(=O)N[C@@H](CCCNC(=N)N)C(=O)N[C@@H](Cc1ccccc1)C(=O)N[C@@H](CCCNC(=N)N)C(=O)N[C@@H](CCCNC(=N)N)C(=O)N[C@@H](CCC(=O)O)C(=O)O
Total Response per epitope [3]: 1336.7 | # donors responded [4]: 5
